Legend:
[1] = system: normal primary NK cells, pool 3 (3 donors) (IL-2 2.5 ng/mL); assay: percent inhibition of viability; higher = more inhibition; conditions: 72 h
YT (IL-2 2.5 ng/mL) [2] = assay: as above; conditions: 72 h
IMC-1 (IL-2 20 ng/mL) [3] = assay: as above; conditions: 72 h
SNK-6 (IL-2 2.5 ng/mL) [4] = assay: as above; conditions: 72 h
[5] = system: normal primary NK cells, pool 2 (3 donors) (IL-2 2.5 ng/mL); assay: as above; conditions: 72 h
[6] = system: normal primary NK cells, pool 1 (3 donors) (IL-2 2.5 ng/mL); assay: as above; conditions: 72 h
KHYG-1 (IL-2 2.5 ng/mL) [7] = assay: as above; conditions: 72 h
DERL-7 (IL-2 2.5 ng/mL) [8] = assay: as above; conditions: 72 h
NK-92 (IL-2 2.5 ng/mL) [9] = assay: as above; conditions: 72 h
[10] = system: normal primary NK cells, pool 1 (3 donors), resting (IL-2 0 ng/mL); assay: as above; conditions: 72 h
NK-YS (IL-2 2.5 ng/mL) [11] = assay: as above; conditions: 72 h
KAI3 (IL-2 2.5 ng/mL) [12] = assay: as above; conditions: 72 h
NKL (IL-2 2.5 ng/mL) [13] = assay: as above; conditions: 72 h
[14] = system: normal primary NK cells, pool 3 (3 donors) (IL-2 2.5 ng/mL); assay: drug sensitivity score (DSS) (DSS units); higher = more sensitive; extreme values may be limits of the assay; conditions: 72 h
YT (IL-2 2.5 ng/mL) [15] = assay: as above; conditions: 72 h
IMC-1 (IL-2 20 ng/mL) [16] = assay: as above; conditions: 72 h
SNK-6 (IL-2 2.5 ng/mL) [17] = assay: as above; conditions: 72 h
[18] = system: normal primary NK cells, pool 2 (3 donors) (IL-2 2.5 ng/mL); assay: as above; conditions: 72 h
[19] = system: normal primary NK cells, pool 1 (3 donors) (IL-2 2.5 ng/mL); assay: as above; conditions: 72 h
KHYG-1 (IL-2 2.5 ng/mL) [20] = assay: as above; conditions: 72 h
DERL-7 (IL-2 2.5 ng/mL) [21] = assay: as above; conditions: 72 h
NK-92 (IL-2 2.5 ng/mL) [22] = assay: as above; conditions: 72 h
[23] = system: normal primary NK cells, pool 1 (3 donors), resting (IL-2 0 ng/mL); assay: as above; conditions: 72 h
NK-YS (IL-2 2.5 ng/mL) [24] = assay: as above; conditions: 72 h
KAI3 (IL-2 2.5 ng/mL) [25] = assay: as above; conditions: 72 h
NKL (IL-2 2.5 ng/mL) [26] = assay: as above; conditions: 72 h
[27] = system: normal NK cells expanded with K562-aAPC; assay: as above; conditions: 72 h; IL-2 2.5 ng/mL
Method: (§1)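 Drug sensitivity and resistance testing on K562-aAPC-expanded normal NK cells: 5 concentrations (10-fold steps over a 10,000-fold range), 72 h at 37 °C, viability by CellTiter-Glo normalised to DMSO and benzethonium chloride controls; DSS from the fitted curve.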

[28] = system: normal NK cells expanded with K562-aAPC; assay: percent inhibition of viability; higher = more inhibition; conditions: 72 h, IL-2 2.5 ng/mL
Method: as §1

CC1(C)NC(=O)N(c2ccc([N+](=O)[O-])c(C(F)(F)F)c2)C1=O [Nilutamide] (max concentration tested 10000 nM)
percent inhibition of viability [%]
Conditions	1 nM	10 nM	100 nM	1000 nM	10000 nM
DERL-7 (IL-2 2.5 ng/mL) [8]	-0.2	-1.34	3.47	-0.03	1.75
IMC-1 (IL-2 20 ng/mL) [3]	0	-0.12	2.93	3	40.4
KAI3 (IL-2 2.5 ng/mL) [12]	2	1.75	11.7	3.52	28.1
KHYG-1 (IL-2 2.5 ng/mL) [7]	24.8	-7.14	-0.73	-1.75	15.3
NK-92 (IL-2 2.5 ng/mL) [9]	-0.95	-6.88	4.02	-1.88	24.8
NK-YS (IL-2 2.5 ng/mL) [11]	-5.09	-3.33	-3.78	3.59	17.6
NKL (IL-2 2.5 ng/mL) [13]	10.6	5.58	15.2	17.2	31.6
SNK-6 (IL-2 2.5 ng/mL) [4]	33.2	-24.8	-17.7	-22.5	-4.35
YT (IL-2 2.5 ng/mL) [2]	0.36	-6.16	5.94	-0.37	25
[1]	1.57	6.88	3.88	-4.89	-2.84
[5]	-2.69	6.11	0.2	1.25	3.42
[6]	-9.72	5.06	-2.38	6.35	1.66
[10]	-1.3	10.6	10.3	9.07	18.9
[28]	-10	-7.03	-6.98	-0.84	12.4

Conditions	drug sensitivity score
DERL-7 (IL-2 2.5 ng/mL) [21]	0
IMC-1 (IL-2 20 ng/mL) [16]	2.47
KAI3 (IL-2 2.5 ng/mL) [25]	1.74
KHYG-1 (IL-2 2.5 ng/mL) [20]	0.08
NK-92 (IL-2 2.5 ng/mL) [22]	0.81
NK-YS (IL-2 2.5 ng/mL) [24]	0.84
NKL (IL-2 2.5 ng/mL) [26]	4.46
SNK-6 (IL-2 2.5 ng/mL) [17]	0
YT (IL-2 2.5 ng/mL) [15]	0.93
[14]	0
[18]	0
[19]	0
[23]	1.43
[27]	0.04

COC[C@H](NC(=O)c1cnc(C)s1)C(=O)N[C@@H](COC)C(=O)N[C@@H](Cc1ccccc1)C(=O)[C@@]1(C)CO1 [Oprozomib] (max concentration tested 2500 nM)
percent inhibition of viability [%]
Conditions	0.25 nM	2.5 nM	25 nM	250 nM	2500 nM
DERL-7 (IL-2 2.5 ng/mL) [8]	-5.62	7.77	81.9	101	101
IMC-1 (IL-2 20 ng/mL) [3]	-7.29	-3.63	0.39	101	101
KAI3 (IL-2 2.5 ng/mL) [12]	-8.21	-2.86	52.1	105	108
KHYG-1 (IL-2 2.5 ng/mL) [7]	-7.33	-2.59	15.4	108	110
NK-92 (IL-2 2.5 ng/mL) [9]	-20.8	3.65	34.1	107	110
NK-YS (IL-2 2.5 ng/mL) [11]	-6.41	-1.88	43.6	106	109
NKL (IL-2 2.5 ng/mL) [13]	-18	-8.51	12.1	107	110
SNK-6 (IL-2 2.5 ng/mL) [4]	-7.89	-7.58	14.6	101	101
YT (IL-2 2.5 ng/mL) [2]	-8.11	-6.26	14.6	106	110
[1]	-7.05	-2.21	50.4	99	100
[5]	-5.27	3.49	62.8	94.6	99.5
[6]	-9.35	5.43	36	97.7	99.8
[10]	-25.2	0.23	62.4	92.9	97.7
[28]	-1.45	0.37	40.2	101	102

Conditions	drug sensitivity score
DERL-7 (IL-2 2.5 ng/mL) [21]	28.6
IMC-1 (IL-2 20 ng/mL) [16]	18.1
KAI3 (IL-2 2.5 ng/mL) [25]	24.4
KHYG-1 (IL-2 2.5 ng/mL) [20]	20.7
NK-92 (IL-2 2.5 ng/mL) [22]	22.8
NK-YS (IL-2 2.5 ng/mL) [24]	23.7
NKL (IL-2 2.5 ng/mL) [26]	20.2
SNK-6 (IL-2 2.5 ng/mL) [17]	20.4
YT (IL-2 2.5 ng/mL) [15]	20.6
[14]	24.2
[18]	25.4
[19]	22
[23]	25
[27]	23.4

CNC(=O)c1ccc2cc([C@@]3(O)CCn4cncc43)ccc2c1 [Orteronel] (max concentration tested 10000 nM)
percent inhibition of viability [%]
Conditions	1 nM	10 nM	100 nM	1000 nM	10000 nM
DERL-7 (IL-2 2.5 ng/mL) [8]	-6.34	0.71	-1.69	-1	-1.19
IMC-1 (IL-2 20 ng/mL) [3]	-2.16	2.99	-1.56	2.85	-4.82
KAI3 (IL-2 2.5 ng/mL) [12]	-7.13	-0.59	-2.47	-4.32	-11.3
KHYG-1 (IL-2 2.5 ng/mL) [7]	-5.73	-2.14	-3.55	0.58	-8.03
NK-92 (IL-2 2.5 ng/mL) [9]	-11.2	0.34	-4.73	4.66	-21.7
NK-YS (IL-2 2.5 ng/mL) [11]	-3.4	-3.35	-1.88	-0.21	-5.45
NKL (IL-2 2.5 ng/mL) [13]	-5	-13	-12.1	0.4	-4.85
SNK-6 (IL-2 2.5 ng/mL) [4]	12.8	29.5	-7.71	18.8	-9.24
YT (IL-2 2.5 ng/mL) [2]	-1.09	-0.82	-3	6.56	-4.8
[1]	-9.86	-10.5	-4.17	-8.67	-0.69
[5]	-7.25	-8.3	-5.11	-0.18	-0.97
[6]	-3.93	-7.55	-2.24	5.97	4.41
[10]	-13	-1.84	15.9	8.47	14.4
[28]	-5.71	-7.96	-3.03	-3.58	-6.05

Conditions	drug sensitivity score
DERL-7 (IL-2 2.5 ng/mL) [21]	0
IMC-1 (IL-2 20 ng/mL) [16]	0
KAI3 (IL-2 2.5 ng/mL) [25]	0
KHYG-1 (IL-2 2.5 ng/mL) [20]	0
NK-92 (IL-2 2.5 ng/mL) [22]	0
NK-YS (IL-2 2.5 ng/mL) [24]	0
NKL (IL-2 2.5 ng/mL) [26]	0
SNK-6 (IL-2 2.5 ng/mL) [17]	0
YT (IL-2 2.5 ng/mL) [15]	0
[14]	0
[18]	0
[19]	0
[23]	2.88
[27]	0

O=C(Nc1cc(Cl)cc2c1[nH]c1cnccc12)c1cccnc1 [PS-1145] (max concentration tested 25000 nM)
percent inhibition of viability [%]
Conditions	2.5 nM	25 nM	250 nM	2500 nM	25000 nM
DERL-7 (IL-2 2.5 ng/mL) [8]	-3.2	-13	1.95	-4.1	-8.03
IMC-1 (IL-2 20 ng/mL) [3]	-6.22	-1.55	3.4	7.36	16
KAI3 (IL-2 2.5 ng/mL) [12]	5.94	6.21	4.4	48.5	75
KHYG-1 (IL-2 2.5 ng/mL) [7]	5.69	5.58	12.9	7.66	16.4
NK-92 (IL-2 2.5 ng/mL) [9]	-0.17	-20.2	-5.95	4.6	23.6
NK-YS (IL-2 2.5 ng/mL) [11]	0.26	0.9	2.11	7.41	11.3
NKL (IL-2 2.5 ng/mL) [13]	12.7	11.1	10.4	9.5	20.8
SNK-6 (IL-2 2.5 ng/mL) [4]	-11.2	3.19	-6.13	14.1	16.6
YT (IL-2 2.5 ng/mL) [2]	3.94	1.19	1.07	4.91	13.9
[1]	-2.28	-6.49	7.93	14.6	10.4
[5]	-19.7	-10.7	3.18	6.82	10.1
[6]	5.83	-8.31	15.4	7.93	11.5
[10]	-26.1	-30.6	0.68	-5.12	-6.42
[28]	2.02	0.77	-1.48	-6.16	6.75

Conditions	drug sensitivity score
DERL-7 (IL-2 2.5 ng/mL) [21]	0
IMC-1 (IL-2 20 ng/mL) [16]	0.51
KAI3 (IL-2 2.5 ng/mL) [25]	10.1
KHYG-1 (IL-2 2.5 ng/mL) [20]	0.87
NK-92 (IL-2 2.5 ng/mL) [22]	1.52
NK-YS (IL-2 2.5 ng/mL) [24]	0.04
NKL (IL-2 2.5 ng/mL) [26]	0
SNK-6 (IL-2 2.5 ng/mL) [17]	1.45
YT (IL-2 2.5 ng/mL) [15]	0.38
[14]	1.86
[18]	0
[19]	0.64
[23]	0
[27]	0
